Experimental data taken from ChEMBL document CHEMBL5236632, “Membrane-Active Nonivamide Derivatives as Effective Broad-Spectrum Antimicrobials: Rational Design, Synthesis, and Biological Evaluation” (J Med Chem, 2022).
≈ marks a conversion by molar mass, not a printed value. Calls of active or inactive are those of the source. No cut-off for these calls is given here.

Key:
Escherichia coli [1] = experiment: Antibacterial activity against Escherichia coli ATCC 25922 assessed as reduction in bacterial load at 8 time of MIC measured with in 30 mins by time kill assay; format: functional; conditions: 0.5 h
Escherichia coli [2] = experiment: Drug resistance development in Escherichia coli ATCC 25922 assessed as fold change in MIC measured after 20 passages; format: functional
Pseudomonas aeruginosa = experiment: Antibacterial activity against Pseudomonas aeruginosa ATCC 9027 assessed as inhibition of visible growth measured after 18 to 24 hrs by broth dilution method; format: functional; conditions: time 18-24 hrs
Staphylococcus aureus [3] = experiment: Antibacterial activity against methicillin-resistant Staphylococcus aureus NCTC 10442 assessed as inhibition of visible growth measured after 18 to 24 hrs by broth dilution method; format: functional; conditions: time 18-24 hrs
[4] = Selectivity ratio, HC50 for hemolytic activity in rabbit RBC to MIC for antibacterial activity against Pseudomonas aeruginosa ATCC 9027; format: toxicity; conditions: erythrocytes
Klebsiella pneumoniae [5] = experiment: Antibacterial activity against Klebsiella pneumoniae ATCC 14581 assessed as inhibition of visible growth measured after 18 to 24 hrs by broth dilution method; format: functional; conditions: time 18-24 hrs
Escherichia coli [6] = experiment: Antibacterial activity against Escherichia coli ATCC 25922 assessed as inhibition of visible growth measured after 18 to 24 hrs by broth dilution method; format: functional; conditions: time 18-24 hrs
Cell membrane [7] = experiment: Induction of membrane depolarization in Escherichia coli ATCC 25922 assessed as increase in fluorescence intensity at 4 to 8 times MIC measured for 60 mins by DiSC3(5) dye based fluorescence method; format: subcellular
Klebsiella pneumoniae [8] = experiment: Antibacterial activity against Klebsiella pneumoniae ATCC 10031 assessed as inhibition of visible growth measured after 18 to 24 hrs by broth dilution method; format: functional; conditions: time 18-24 hrs
[9] = Haemolytic activity in rabbit red blood cells incubated for 60 mins by k multi-mode reader relative to control; format: toxicity, cell-based, Oryctolagus cuniculus, Erythrocyte
Cell membrane [10] = experiment: Induction of membrane depolarization in Staphylococcus aureus ATCC 29213 assessed as increase in fluorescence intensity at 4 to 8 times MIC measured for 60 mins by DiSC3(5) dye based fluorescence method; format: subcellular
[11] = Cytotoxicity against HEK293 cells assessed as cell viability after 24 hrs incubation byCCK-8 assay; format: toxicity, cell-based; conditions: human
Acinetobacter baumannii [12] = experiment: Antibacterial activity against Acinetobacter baumannii R2889 assessed as inhibition of visible growth measured after 18 to 24 hrs by broth dilution method; format: functional; conditions: time 18-24 hrs
Cell membrane [13] = experiment: Induction of outer membrane permeability in Escherichia coli ATCC 25922 assessed as increase fluoresence intensity at 4 to 8 times of MIC measured for 60 mins by NPN uptake assay; format: subcellular
[14] = Cytotoxicity against mouse NCTC clone 929 cells assessed as cell viability after 24 hrs incubation byCCK-8 assay; format: toxicity, cell-based
Acinetobacter baumannii [15] = experiment: Antibacterial activity against Acinetobacter baumannii ATCC 17978 assessed as inhibition of visible growth measured after 18 to 24 hrs by broth dilution method; format: functional; conditions: time 18-24 hrs
Staphylococcus aureus [16] = experiment: Antibacterial activity against Staphylococcus aureus ATCC 29213 assessed as inhibition of visible growth measured after 18 to 24 hrs by broth dilution method; format: functional; conditions: time 18-24 hrs
Staphylococcus aureus [17] = experiment: Antibacterial activity against methicillin-resistant Staphylococcus aureus N315 assessed as inhibition of visible growth measured after 18 to 24 hrs by broth dilution method; format: functional; conditions: time 18-24 hrs

Row | Structure (SMILES) | Activity (Escherichia coli [1]) [log10CFU/ml] | fold change (FC) (Escherichia coli [2]) | MIC (Pseudomonas aeruginosa) [µg/mL] | MIC (Staphylococcus aureus [3]) [µg/mL] | MIC [4] [µg/mL] | MIC (Klebsiella pneumoniae [5]) [µg/mL] | MIC (Escherichia coli [6]) [µg/mL] | Activity (Cell membrane [7]) | MIC (Klebsiella pneumoniae [8]) [µg/mL] | HC5 ([9]; erythrocyte, 1 h) [µg/mL] | HC50 at 1 h ([9]; rabbit red blood cells) [µg/mL] | Activity (Cell membrane [10]) | CC50 at 24 h [11] [µg/mL] | MIC (Acinetobacter baumannii [12]) [µg/mL] | Activity (Cell membrane [13]) | CC50 at 24 h [14] [µg/mL] | MIC (Acinetobacter baumannii [15]) [µg/mL] | MIC (Staphylococcus aureus [16]) [µg/mL] | MIC (Staphylococcus aureus [17]) [µg/mL]
1 | CC1(C)S[C@@H]2[C@H](NC(=O)[C@H](N)c3ccc(O)cc3)C(=O)N2[C@H]1C(=O)O [AMOXICILLIN] | 0.29 | 16 | – | – | – | – | – | – | – | – | – | – | – | – | – | – | – | – | –
2 | CCCCCCCCC(=O)NCc1ccc(O)c(OC)c1 [NONIVAMIDE] | – | – | > 50 | > 50 | > 50 | > 50 | > 50 | inactive | > 50 | > 200 | > 200 | inactive | 62 (≈ 211 µM) | > 50 | inactive | 59 (≈ 201 µM) | > 50 | > 50 | > 50
